US9643967B2, “Pyrrolo[3,2-c]pyridine derivatives as TLR inhibitors” (TAKEDA PHARMACEUTICAL COMPANY LIMITED, priority 2013, dated 2017)
Like-named read-outs stand apart in the source and are kept apart here.

Key:
mTLR9 = biological target: T1, mTLR9 (Mus musculus, UniProt Q9EQU3); assay: mTLR9 antagonism (IL-6 and TNF-α release assay) in mouse splenocytes, CpG ODN-2006 stimulated; format: cell-based; settings: 1 μM, mouse splenocytes
T1 construct: Splenocytes isolated from male C57/BL6 mice; from tissue; host or cells: splenocytes from the spleen of male C57BL/6 mice
T1 sequence (Q9EQU3 26-1032): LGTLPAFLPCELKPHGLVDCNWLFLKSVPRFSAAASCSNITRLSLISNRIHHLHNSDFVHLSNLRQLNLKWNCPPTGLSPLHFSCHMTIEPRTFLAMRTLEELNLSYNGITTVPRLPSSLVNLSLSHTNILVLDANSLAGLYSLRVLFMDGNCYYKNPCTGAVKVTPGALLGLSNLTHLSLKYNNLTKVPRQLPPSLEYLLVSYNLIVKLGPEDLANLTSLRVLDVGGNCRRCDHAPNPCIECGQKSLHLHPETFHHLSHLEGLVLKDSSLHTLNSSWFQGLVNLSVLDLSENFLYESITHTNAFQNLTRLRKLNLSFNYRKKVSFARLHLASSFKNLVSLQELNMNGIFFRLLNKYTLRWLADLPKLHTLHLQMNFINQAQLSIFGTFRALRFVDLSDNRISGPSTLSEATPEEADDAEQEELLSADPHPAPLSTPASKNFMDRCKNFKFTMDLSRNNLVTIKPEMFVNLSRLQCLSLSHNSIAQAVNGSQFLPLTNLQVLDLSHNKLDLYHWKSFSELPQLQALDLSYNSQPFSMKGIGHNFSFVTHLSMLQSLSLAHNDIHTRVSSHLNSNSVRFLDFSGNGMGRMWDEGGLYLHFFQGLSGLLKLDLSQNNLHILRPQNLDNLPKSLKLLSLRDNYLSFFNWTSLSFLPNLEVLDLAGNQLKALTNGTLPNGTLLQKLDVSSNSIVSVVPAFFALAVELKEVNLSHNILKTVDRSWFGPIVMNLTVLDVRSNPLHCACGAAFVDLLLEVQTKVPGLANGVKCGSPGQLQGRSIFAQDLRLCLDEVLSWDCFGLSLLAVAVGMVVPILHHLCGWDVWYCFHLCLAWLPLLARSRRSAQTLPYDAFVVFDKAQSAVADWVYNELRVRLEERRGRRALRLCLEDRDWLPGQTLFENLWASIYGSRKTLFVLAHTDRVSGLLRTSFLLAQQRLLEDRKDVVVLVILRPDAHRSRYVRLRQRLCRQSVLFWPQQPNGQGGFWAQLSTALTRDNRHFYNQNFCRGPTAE
Method in brief: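 C57BL6 mouse splenocytes (0.2 million/well) pre-incubated 30 min at 37 °C with compounds (30 μM–1 nM, 0.3% DMSO), then stimulated with 1 μg/ml CpG ODN-2006 overnight at 37 °C/5% CO2. IL-6 and TNF-α in supernatant measured by ELISA; IC50 from % inhibition curves.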

[1] = tested on: lupus-prone MRL lpr/lpr mice; assay: Mouse lupus disease model, anti-dsDNA IgG titers (ELISA); format: in vivo; settings: female MRL/lpr mice; for mean anti-dsDNA IgG titers after 6 weeks of treatment: oral QD, 3, 10 and 30 mg/kg
Experimental: Mouse Lupus Disease Model
Examples B6 and B11 were tested in well studied mouse model of lupus, lupus-prone MRL lpr/lpr mice that develop disease similar to human SLE [J Exp Med., 1978, 148 (5), 1198-1215]. These mice develop spontaneous systemic autoimmunity with both molecular (IFN signature) and clinical (autoantibody production and glomerulonephritis) features similar to human SLE. Anti-dsDNA antibodies are correlated with human SLE and the reduction in anti-dsDNA antibodies is believed to be of potential clinical benefit. Positive TLR7 and/or TLR9 target validation results have been reported for this disease model.
Mouse Lupus Disease Model Strain:
Female MRL/lpr mice were purchased from Jackson Laboratories (USA) which manifest spontaneous lupus disease. Female MRL/lpr mice were treated for 9 weeks by oral route once a day with TLR-7/9 antagonists [Examples B6 and B11] at 3, 10 and 30 mg/kg doses. Prednisolone (2 mg/kg, P.O., QD) was used as a positive control during the studies. At the end of treatment period, animals were sacrificed and blood samples were collected to estimate anti-dsDNA IgG titers using anti-dsDNA IgG ELISA kit, Alpha Diagnostics, USA.

[2] = IL-6 release, read-out: mTLR9 inhibitory activity (% at 1 μM), IL-6
[3] = TNF-α release, read-out: mTLR9 inhibitory activity (% at 1 μM), TNF-α

inhibition at 1 µM (mTLR9; [2]) [%]	inhibition at 1 µM (mTLR9; [3]) [%]	SMILES	mean anti-dsDNA IgG titers after 6 weeks of treatment [1]	anti-dsDNA IgG after 9 weeks of treatment ([1]; 10 mg/kg once daily oral, 9 weeks, 10 mg/kg)
100	100	Cc1cc2c(cc(CCN3CCOCC3)n2C)c(-c2ccc(N3CCN(C(C)C)CC3)cc2)n1 [Example B11, 4-[2-[4-[4-(4-isopropylpiperazin-1-yl)phenyl]-1,6-dimethyl-pyrrolo[3,2-c]pyridin-2-yl]ethyl]morpholine]	dose dependent reduction	
100	100	Cc1nc(-c2ccc(N3CCN(C(C)C)CC3)cc2)c2cc(CCN3CCOCC3)[nH]c2c1C [Example B6, 4-[2-[4-[4-(4-isopropylpiperazin-1-yl)phenyl]-6,7-dimethyl-1H-pyrrolo[3,2-c]pyridin-2-yl]ethyl]morpholine]	trend towards dose dependent reduction	Significant reduction
72	0	CC(C)N1CCN(c2ccc(-c3nccc4[nH]c(CN5CC(O)C5)cc34)cc2)CC1 [Example A72, 1-[[4-[4-(4-isopropylpiperazin-1-yl)phenyl]-1H-pyrrolo[3,2-c]pyridin-2-yl]methyl]azetidin-3-ol]		
100	100	CC(C)N1CCN(c2ccc(-c3nccc4[nH]c(CCN5CCOCC5)cc34)cc2)CC1 [Example B1, 4-[2-[4-[4-(4-isopropylpiperazin-1-yl)phenyl]-1H-pyrrolo[3,2-c]pyridin-2-yl]ethyl]morpholine]		
100	100	CC(C)N1CCN(c2ccc(-c3nccc4[nH]c(CN5CCCCC5)cc34)cc2)CC1 [Example A17, 4-[4-(4-isopropylpiperazin-1-yl)phenyl]-2-(1-piperidylmethyl)-1H-pyrrolo[3,2-c]pyridine]		
65	15	c1cc2[nH]c(CN3CCOCC3)cc2c(-c2ccc(OC3CCNCC3)cc2)n1 [Example A49, 4-[[4-[4-(4-piperidyloxy)phenyl]-1H-pyrrolo[3,2-c]pyridin-2-yl]methyl]morpholine]		
100	100	Cc1cc2c(cc(CCN3CCOCC3)n2C)c(-c2ccc(N3CCN(C(C)C)CC3)cc2F)n1 [Example B19, 4-[2-[4-[2-fluoro-4-(4-isopropylpiperazin-1-yl)phenyl]-1,6-dimethyl-pyrrolo[3,2-c]pyridin-2-yl]ethyl]morpholine]		
	0	CC(C)N1CCC(n2cc(-c3nccc4[nH]c(CN5CCOCC5)cc34)cn2)CC1 [Example A54, 4-[[4-[1-(1-isopropyl-4-piperidyl)pyrazol-4-yl]-1H-pyrrolo[3,2-c]pyridin-2-yl]methyl]morpholine]		
	71	CC(C)N1CCC(Oc2ccc(-c3nccc4[nH]c(CN5CCOCC5)cc34)cc2)CC1 [Example A56, 4-[[4-[4-[(1-isopropyl-4-piperidyl)oxy]phenyl]-1H-pyrrolo[3,2-c]pyridin-2-yl]methyl]morpholine]		
100	100	CCN1CCN(c2ccc(-c3nc(C)c(C)c4[nH]c(CN5CCOCC5)cc34)cc2)CC1 [Example A38, 4-[[4-[4-(4-ethylpiperazin-1-yl)phenyl]-6,7-dimethyl-1H-pyrrolo[3,2-c]pyridin-2-yl]methyl] morpholine]		
